# From US12377104B1, “Methods for treating a fatty liver disease” (Madrigal Pharmaceuticals, Inc., priority 2024, dated 2025)
# How the values were obtained:
# [1] = system: adults with biopsy-confirmed NASH and fibrosis stage F1B, F2, or F3; experiment: MAESTRO-NASH phase 3: liver biopsy end points at week 52; type: in vivo, human
# Protocol: A phase 3 trial was conducted involving adults with biopsy-confirmed NASH and a fibrosis stage of F1B, F2, or F3 (stages range from F0 [no fibrosis] to F4 [cirrhosis]).
# Randomization was performed with the use of an interactive Webresponse system. Patients were stratified according to status with respect to type 2 diabetes (presence or absence) and fibrosis stage (F1, F2, or F3). Throughout the trial, patients received nutrition and exercise counseling according to current recommendations. Patients were unaware of the trial-group assignments, as were site personnel, personnel of contract research organizations, and sponsor personnel who were conducting the trial, administering the investigational product, and performing clinical assessments. Selected persons were aware of the trial-group assignments to facilitate dispensation of resmetirom or placebo. All trial personnel were unaware of the results of postbaseline tests that could reveal the trial-group assignments, including levels of total and free thyroxine (T4), sex hormone-binding globulin, and lipids as well as magnetic resonance imaging proton density fat fraction (MRI-PDFF).
# Screening biopsy results were used as baseline values for histologic variables, and a second biopsy was performed at week 52. Biopsy specimens on glass slides were assessed centrally by two independent expert pathologists (the second and third authors) to determine the NAFLD activity score and fibrosis stage (according to NASH Clinical Research Network criteria). For the primary analysis, all screening or baseline biopsy specimens and week 52 biopsy specimens on glass slides were reread independently by both pathologists in large unpaired groups of screening or baseline biopsy specimens (50 to 100 slides per group, spiked with biopsy specimens obtained from patients who had screening failure) or a separate matched set of week 52 biopsy specimens (50 to 100 slides per group). The pathologists were unaware of the trial-group assignments, patient characteristics, and each other's assessments. A consensus review was conducted as a supportive analysis wherein the two pathologists read blinded (to time of biopsy and identification code) digitized images for cases in which there was disagreement on the primary read with respect to response status for the two primary end points or a reduction in fibrosis by at least two stages. Only the NAFLD activity scores or fibrosis components that determined the response for which there was disagreement between the pathologists were reread. Details are provided in the Supplementary Appendix.
# The primary statistical analysis model used the Cochran-Mantel-Haenszel test to determine response with respect to the biopsy end points.
# [2] = MAESTRO-NASH: thyroid hormones at week 52; type: in vivo, human; conditions: 80 mg, Week 52
compound,measurement,setting,value
"CC(C)c1cc(Oc2c(Cl)cc(-n3nc(C#N)c(=O)[nH]c3=O)cc2Cl)n[nH]c1=O [Resmetirom, 2-(3,5-dichloro-4-((5-isopropyl-6-oxo-1,6-dihydropyridazin-3-yl)oxy)phenyl)-3,5-dioxo-2,3,4,5-tetrahydro-1,2,4-triazine-6-carbonitrile]","Both NASH resolution and fibrosis improvement by ≥1 stage, difference from placebo",[1]; 80 mg,9.5 percentage points
same,"Both NASH resolution and fibrosis improvement by ≥1 stage, percent with response",[1]; 80 mg,14.2%
same,"Fibrosis improvement by ≥1 stage with no worsening of NAFLD activity score, difference from placebo",[1]; 80 mg,10.2 percentage points
same,"Fibrosis improvement by ≥1 stage with no worsening of NAFLD activity score, percent with response",[1]; 80 mg,24.2%
same,"Improvement in each component of NAFLD activity score, difference from placebo",[1]; 80 mg,16.1 percentage points
same,"Improvement in each component of NAFLD activity score, percent with response",[1]; 80 mg,23.3%
same,"Improvement in fibrosis by ≥2 stages, difference from placebo",[1]; 80 mg,5.6 percentage points
same,"Improvement in fibrosis by ≥2 stages, percent with response",[1]; 80 mg,8.3%
same,"NASH resolution with no worsening of fibrosis, difference from placebo",[1]; 80 mg,16.4 percentage points
same,"NASH resolution with no worsening of fibrosis, percent with response",[1]; 80 mg,25.9%
same,"≥2-Point improvement in NAFLD activity score with improvement in fibrosis, difference from placebo",[1]; 80 mg,10.5 percentage points
same,"≥2-Point improvement in NAFLD activity score with improvement in fibrosis, percent with response",[1]; 80 mg,18.8%
same,"≥2-Point improvement in NAFLD activity score with no worsening of fibrosis, difference from placebo",[1]; 80 mg,20.2 percentage points
same,"≥2-Point improvement in NAFLD activity score with no worsening of fibrosis, percent with response",[1]; 80 mg,41.3%
same,"Both NASH resolution and fibrosis improvement by ≥1 stage, difference from placebo",[1]; 100 mg,11.6 percentage points
same,"Both NASH resolution and fibrosis improvement by ≥1 stage, percent with response",[1]; 100 mg,16.0%
same,"Fibrosis improvement by ≥1 stage with no worsening of NAFLD activity score, difference from placebo",[1]; 100 mg,11.8 percentage points
same,"Fibrosis improvement by ≥1 stage with no worsening of NAFLD activity score, percent with response",[1]; 100 mg,25.9%
same,"Improvement in each component of NAFLD activity score, difference from placebo",[1]; 100 mg,20.9 percentage points
same,"Improvement in each component of NAFLD activity score, percent with response",[1]; 100 mg,27.9%
same,"Improvement in fibrosis by ≥2 stages, difference from placebo",[1]; 100 mg,7.4 percentage points
same,"Improvement in fibrosis by ≥2 stages, percent with response",[1]; 100 mg,10.1%
same,"NASH resolution with no worsening of fibrosis, difference from placebo",[1]; 100 mg,20.7 percentage points
same,"NASH resolution with no worsening of fibrosis, percent with response",[1]; 100 mg,29.9%
same,"≥2-Point improvement in NAFLD activity score with improvement in fibrosis, difference from placebo",[1]; 100 mg,13.0 percentage points
same,"≥2-Point improvement in NAFLD activity score with improvement in fibrosis, percent with response",[1]; 100 mg,21.2%
same,"≥2-Point improvement in NAFLD activity score with no worsening of fibrosis, difference from placebo",[1]; 100 mg,23.8 percentage points
same,"≥2-Point improvement in NAFLD activity score with no worsening of fibrosis, percent with response",[1]; 100 mg,44.9%
same,"FT3 (not on thyroxine), LS mean CFB",[2],-0.01 ng/L
same,"FT3 (not on thyroxine), LS mean difference from PBO (CFB)",[2],0.01 ng/L
same,"FT3 (thyroxine-treated), LS mean CFB",[2],0.04 ng/L
same,"FT3 (thyroxine-treated), LS mean difference from PBO (CFB)",[2],0.05 ng/L
same,"FT3, LS mean CFB",[2],-0.01 ng/L
same,"FT3, LS mean difference from PBO (CFB)",[2],0.02 ng/L
same,"FT3/rT3 (not on thyroxine), LS mean CFB",[2],0.06
same,"FT3/rT3 (not on thyroxine), LS mean difference from PBO (CFB)",[2],0.06
same,"FT3/rT3 (thyroxine-treated), LS mean CFB",[2],0.05
same,"FT3/rT3 (thyroxine-treated), LS mean difference from PBO (CFB)",[2],0.06
same,"FT3/rT3, LS mean difference from PBO (CFB)",[2],0.06
same,"FT4 (not on thyroxine), LS mean % CFB",[2],−13.8%
same,"FT4 (not on thyroxine), LS mean CFB",[2],0.16 ng/dL
same,"FT4 (not on thyroxine), LS mean difference from PBO (% CFB)",[2],−16.3%
same,"FT4 (not on thyroxine), LS mean difference from PBO (CFB)",[2],-0.18 ng/dL
same,"FT4 (thyroxine-treated), LS mean % CFB",[2],−14.0%
same,"FT4 (thyroxine-treated), LS mean CFB",[2],0.18 ng/dL
same,"FT4 (thyroxine-treated), LS mean difference from PBO (% CFB)",[2],−17.9%
same,"FT4 (thyroxine-treated), LS mean difference from PBO (CFB)",[2],-0.21 ng/dL
same,"FT4, LS mean % CFB",[2],13.9%
same,"FT4, LS mean CFB",[2],-0.17 ng/dL
same,"FT4, LS mean difference from PBO (% CFB)",[2],−16.6%
same,"FT4, LS mean difference from PBO (CFB)",[2],-0.19 ng/dL
same,"TBG (not on thyroxine), LS mean CFB",[2],0.19 mg/L
same,"TBG (not on thyroxine), LS mean difference from PBO (CFB)",[2],-1.8 mg/L
same,"TBG (thyroxine-treated), LS mean CFB",[2],1.1 mg/L
same,"TBG (thyroxine-treated), LS mean difference from PBO (CFB)",[2],-2.6 mg/L
same,"TBG, LS mean CFB",[2],-0.32 mg/L
same,"TBG, LS mean difference from PBO (CFB)",[2],-1.9 mg/L
same,"TSH (not on thyroxine), LS mean CFB",[2],−0.23 mIU/L
